Laboratory results: the NIST ThermoML archive (doi:10.1021/acs.jced.5b00242)

Assays:
[1] = xn = mol fraction of the nth substance listed; conditions: 101 kPa, Liquid, x1 = 1; for mass density: Vibrating tube method
[2] = refractive index (Na D-line) (dimensionless); xn = mol fraction of the nth substance listed; conditions: 101 kPa, Liquid, Standard Abbe refractometry, x1 = 1

CCn1cc[n+](C)c1.N#C[C-](C#N)C#N [1-ethyl-3-methyl-1H-imidazolium tricyanomethanide] + CCn1cc[n+](C)c1.C[C@H](N)C(=O)[O-]
[1], Stabinger Viscometer
Conditions	viscosity [mPa·s]
293.15 K	16.62
298.15 K	14.19
303.15 K	12.18
308.15 K	10.58
313.15 K	9.02
318.15 K	8.2
323.15 K	7.31
328.15 K	6.56
333.15 K	5.72
338.15 K	5.38
343.15 K	4.91
348.15 K	4.5
353.15 K	3.98

Conditions	mass density, [1] [kg/m3]	refractive index, [2]
293.15 K	1084.6	1.51454
298.15 K	1081	1.51286
303.15 K	1077.5	1.51114
308.15 K	1073.9	1.50938
313.15 K	1070.4	1.50765
318.15 K	1067.1	1.50595
323.15 K	1063.7	1.50419
328.15 K	1060.3	1.50255
333.15 K	1056.9	1.50087
338.15 K	1053.6	1.49921
343.15 K	1050.2	1.49757
348.15 K	1046.8	1.49593
353.15 K	1043.4	1.49429

CCn1cc[n+](C)c1.N#C[C-](C#N)C#N [1-ethyl-3-methyl-1H-imidazolium tricyanomethanide] + CCn1cc[n+](C)c1.NCC(=O)[O-]
[1], Stabinger viscometer
Conditions	viscosity [mPa·s]
293.15 K	16.62
298.15 K	14.19
303.15 K	12.18
308.15 K	10.58
313.15 K	9.02
318.15 K	8.2
323.15 K	7.31
328.15 K	6.56
333.15 K	5.72
338.15 K	5.38
343.15 K	4.91
348.15 K	4.5
353.15 K	3.98

Conditions	mass density, [1] [kg/m3]	refractive index, [2]
293.15 K	1084.6	1.51454
298.15 K	1081	1.51286
303.15 K	1077.5	1.51114
308.15 K	1073.9	1.50938
313.15 K	1070.4	1.50765
318.15 K	1067.1	1.50595
323.15 K	1063.7	1.50419
328.15 K	1060.3	1.50255
333.15 K	1056.9	1.50087
338.15 K	1053.6	1.49921
343.15 K	1050.2	1.49757
348.15 K	1046.8	1.49593
353.15 K	1043.4	1.49429
